6 compounds from US12280121B2, “Immunoconjugates and methods” (Immunome, Inc., priority 2021, dated 2025) can be followed below.

The nature of data set [1]: PAMPA (Parallel Artificial Membrane Permeability Assay). In kind it is physicochemical. An excerpt: PAMPA is a method which determines the permeability of substances from a donor compartment, through a lipid-infused artificial membrane into an acceptor compartment. See Ottaviani, G.; Martel, S.; Carrupt, P-A. “Parallel Artificial Membrane Permeability Assay: A New Membrane for the Fast Prediction of Passive Human Skin Permeability”, Journal of Medicinal Chemistry, 2006, 49 (13), 3948-3954). A multi-well microtitre plate is used for the donor and a membrane/acceptor compartment is placed on top; the whole assembly is commonly referred to as a “sandwich”. At the beginning of the test, the drug is added to the donor compartment, and the acceptor compartment is drug-free. After an incubation period which may include stirring, the sandwich is separated, and the amount of drug is measured in each compartment. Mass balance allows calculation of drug that remains in the membrane.
The PAMPA was performed by Pion Inc using the GIT-0 lipid and 5 μM donor solution in pH 5.0 and pH 7.4 PRISMA buffer (containing 0.05% DMSO). The higher PAMPA data has been associated with better bystander killing. (Ogitani Y.; Hagihara K.; Oitate, M.; Naito, H.; Agatsuma T. “Bystander killing effect of DS-8201a, a novel anti-human epidermal growth factor receptor 2 antibody-drug conjugate, in tumors with human epidermal growth factor receptor 2 heterogeneity” Cancer Science, 2016, 107 (7), 1039-1046).

A short description of data set [2]: Human liver microsome clearance (HLM CL). In kind it is in vitro ADME. The protocol:
Working solution was prepared by adding 5 μL of compound and control stock solution (10 mM in dimethyl sulfoxide, DMSO) to 495 μL of acetonitrile (ACN) (intermediate solution concentration: 100 μM, 99% CAN and 1% DMSO. The appropriate concentrations of microsome working solutions were prepared in 100 mM potassium phosphate buffer. After reaction plates containing mixtures of compound and microsomes were pre-incubated at 37° C. for 10 min, […] of 2 mM of NADPH and 2 mM of MgCl2 solution was added to start the reaction. The final concentrations of incubation medium were as follows: microsome—0.5 mg protein/mL, test compound/control […], NADPH—1 mM, MgCl2 —1 mM, acetonitrile 0.99%, DMSO 0.01%. Incubations were performed at 37° C. for 60 min. Samples were taken out at TO, T5, T15, T30, T45 and T60, which was added intermediately to the ice-cold stop solution (acetonitrile with 200 ng/mL of tobutamide and labetalol as internal standard) (125 μl), shaken for 10 min, centrifuged at 4000 rpm for 20 min at 4° C. Analytical plates were analyzed by LCMS.
(§1) Human liver microsome clearance assay assess metabolism by the cytochrome P450 system (phase I enzymes). These enzymes oxidize substrates by incorporating oxygen atoms into hydrocarbons, thus causing the introduction of hydroxyl groups, or N- O- and S-dealkylation of substrates and forming more polar products easier to be cleared. Human hepatocyte clearance assay measures more broadly the overall cellular metabolism of the test compound (phase I and phase II enzyme pathways). Phase II enzymes catalyze the conjugation reaction of xenobiotic metabolites and charged species, such as glutathione, sulfate, glycine, or glucuronic acid to form even more polar compounds for easier clearance.
A general note: Liver microsomes are vesicles of endoplasmic reticulum, rich in cytochrome P450 enzymes.

The subject of a further data set is MDA-MB-468. Nature of the data set: CTG assay (CellTiter-Glo cell viability), MDA-MB-468, payload compounds. Format: cell-based. The settings on record: Homo sapiens. An excerpt: (§2) The CTG assay is a method of determining the number of viable cells in culture based on quantitation of the ATP present, an indicator of metabolically active cells. The cell assay requires the addition of a single reagent, Cell Titer Glo, in which cells are lysed and generation of a luminescent signal is produced. The luminescent signal is proportional to the amount of ATP present. The amount of ATP is directly proportional to the number of cells present in culture. For our assay, cells were ensured to be in log-phase for either Jeko-1 or MDA-MB-468. Cells were transferred to 96 wells and treated with compounds in three-fold serial dilution starting from 1 μM to 0.0000508 μM (10 points dilution), for 72 h. Cell viability was analyzed with CellTiter-Glo® Luminescent Cell Viability Assay (Promega) following manufactures' instruction. Percentage of viable cells in each compound concentration was determined by normalizing with the luminescence of vehicle control and plotted into percentage of viability versus dose response curve by nonlinear fit in GraphPad Prism software.

The subject of data set [3] is Jeko-1. In words: CTG assay (CellTiter-Glo cell viability), Jeko-1, payload compounds. Format: cell-based. As to conditions: Homo sapiens.
Source text: as §2
Background: In ATP-based viability assays light output follows the ATP content of the culture.

For data set [4], the system named is Jeko-1. In words: CTG assay of ROR-1 ADCs and toxins, JeKo-1. In kind it is cell-based. The protocol: FIG. 33 illustrates a CTG assay wherein ROR+ (JeKo-1) cells were incubated with the ADCs generated as described in FIG. 32 in serial three-fold dilutions and cell viability was assessed after 72 hours.
as §2
Novel ROR-1 antibody-drug conjugates (ADCs) were evaluated by CTG Assay in a similar manner as was described in Example 24 for screening of payloads. […] Briefly ROR+(JeKo-1/MDA-MB-468) or ROR− (Ramos) cells were transferred to 96 wells and treated with the ADCs in three-fold serial dilution starting from […] (10 points dilution), for 72 h. Cell viability was analyzed with CellTiter-Glo® Luminescent Cell Viability Assay (Promega) following the manufactures' instructions (FIG. 33). The percentage of viable cells at each ADC concentration was determined by normalizing with the luminescence of vehicle control and plotted into percentage of viability versus dose response curve by nonlinear fit in GraphPad Prism software.

The nature of data set [5]: Human hepatocyte clearance (HHEP CL). In kind it is in vitro ADME. More on the design: CLint scaled / half-life: dose or concentration left out as unconfirmed. The settings on record: both sexes. As to the method: Suspensions of human hepatocytes (from 10 mixed gender human donors, final concentration 0.5×10^6 cell/mL) in Williams' E medium were incubated for 90 min with a test compound (0.90% acetonitrile and 0.10% DMSO, final concentration […]) and positive controls (7-Ethoxycoumarin, 7-Hydroxycoumarin, 0.90% acetonitrile and 0.10% DMSO, final concentration […]), with constant shaking at about 600 rpm at 37° C. in an incubator at 5% CO2 and 95% humidity. The total volume of incubation was 200 μl. A sample ([…]) was taken out at TO, 15, 30, 60 and 90 min, which was added intermediately to the ice-cold stop solution (acetonitrile with 200 ng/mL of tobutamide and labetalol as internal standard) (125 μl), and vortexed at 500 rpm for 10 min, centrifuged at 3220×g for 20 min at 4° C. Analytical plates are sealed and stored at 4° C. until LCMS analysis. Viability of hepatocytes at pre-incubation was determined to be 84.5%.
as §1

[6] abbreviates: MDA-MB-468, 72 h, CellTiter-Glo, read-out: MDA-MB-468 IC50.
Where [7] appears, read: JeKo-1, 72 h, CellTiter-Glo, read-out: JeKo-1 IC50.
The mark [8] stands for this setting: Homo sapiens, Jeko-1, average of run 1 and run 2, read-out: Avg. IC50.
[9] abbreviates: Homo sapiens, Jeko-1 P3, run 1, 72 h, read-out: Jeko-1 P3 (RUN1) IC50.
Where [10] appears, read: Homo sapiens, Jeko-1 P4, run 2, 72 h, read-out: Jeko-1 P4 (RUN2) IC50.
Where [11] appears, read: pH 5.0 PRISMA buffer, GIT-0 lipid, 5 μM donor solution, read-out: PAMPA Pe pH 5.0.
Setting [12] is: pH 7.4 PRISMA buffer, GIT-0 lipid, 5 μM donor solution, read-out: PAMPA Pe pH 7.4.
[13] abbreviates: human liver microsomes 0.5 mg protein/mL, NADPH, 60 min, read-out: HLM (T1/2).
Setting [14] is: human liver microsomes 0.5 mg protein/mL, NADPH, 60 min, read-out: HLM Cl (human liver microsome clearance).
Where [15] appears, read: human hepatocytes, 90 min incubation, read-out: HHEP (T1/2).
The mark [16] stands for this setting: human hepatocytes, 90 min incubation, read-out: HHEP Cl (human hepatocytes intrinsic clearance).

Like-named read-outs stand apart in the source and are kept apart here. Non-standard residues stand in square brackets, D forms with d. Residues, ends and D or L forms follow the SMILES beside them. *: point of attachment. Dolaproine = CO[C@@H]([C@@H]1CCCN1)[C@@H](C)C(=O)O; Dil = CC[C@H](C)[C@H](NC)[C@@H](CC(=O)O)OC; X1 = C[C@@H](N*)[C@@H](O)c1ccccc1; NMeV = CN[C@H](C(=O)O)C(C)C

For `CC[C@@]1(O)C(=O)OCc2c1cc1n(c2=O)Cc2c-1nc1cc(F)c(C)c3c1c2[C@@H](OCCO)CC3` (single isomer, unassigned) [Compound 5-48], the results for the Papp at 5 μM in data set [1] (pH 5) and in data set [1] (pH 7.4) were 69 ×10⁻⁶ cm/s and 9 ×10⁻⁶ cm/s, respectively. Further, the CLint scaled in data set [2] (human, microsomes) was 17.4 mL/min/kg; in data set [5] (human, hepatocytes) it was 75.5 mL/min/kg. Besides, the half-life in data set [2] (human, microsomes) was found to be 1.2 h; in data set [5] (human, hepatocytes) it was 0.852 h. Besides, the IC50 with MDA-MB-468 (setting [6]) stood at 8.3 nM; in the data set with Jeko-1 [3] (setting [7]), 0.68 nM; with Jeko-1 [4] (setting [8]), 0.5 nM; in the data set with Jeko-1 [4] (setting [9]), 0.5 nM; with Jeko-1 [4] (setting [10]), 0.5 nM.

As for `CC[C@@]1(O)C(=O)OCc2c1cc1n(c2=O)Cc2c-1nc1cc(F)c(C)c3c1c2[C@@](C)(NC(=O)CO)CC3` [Compound 9-74, N-((1S,9S)-9-ethyl-5-fluoro-9-hydroxy-1,4-dimethyl-10,13-dioxo-1,2,3,9,10,12,13,15-octahydrobenzo[de]pyrano[3′,4′:6,7]indolizino[1,2-b]quinolin-1-yl)-2-hydroxyacetamide], the figures for the Papp at 5 μM in data set [1] (pH 5) and in data set [1] (pH 7.4) were 36.1 ×10⁻⁶ cm/s and 4.4 ×10⁻⁶ cm/s, respectively. Moreover, the CLint scaled in data set [2] (human, microsomes) was 22.7 mL/min/kg; in data set [5] (human, hepatocytes) it was 57.5 mL/min/kg. Also, the half-life in data set [2] (human, microsomes) worked out at 0.915 h; in data set [5] (human, hepatocytes), 1.12 h. The IC50 came out at 57.7 nM in the data set with MDA-MB-468 (setting [6]); 4.1 nM with Jeko-1 [3] (setting [7]); 3.1 nM with Jeko-1 [4] (setting [8]); 2.4 nM in the data set on Jeko-1 [4] (setting [9]); 3.7 nM in the data set on Jeko-1 [4] (setting [10]).

With `CC[C@@]1(O)C(=O)OCc2c1cc1n(c2=O)Cc2c-1nc1cc(F)c(C)c3c1c2[C@@](C)(NCCO)CC3.Cl` [Compound 16-95, (1S,9S)-9-ethyl-5-fluoro-9-hydroxy-1-((2-hydroxyethyl)amino)-1,4-dimethyl-2,3,12,15-tetrahydrobenzo[de]pyrano[3′,4′:6,7]indolizino[1,2-b]quinoline-10,13(1H,9H)-dione hydrochloride], the Papp at 5 μM in data set [1] (setting [11]) was 63.1 ×10⁻⁶ cm/s; in data set [1] (setting [12]), 5.5 ×10⁻⁶ cm/s. For the same compound, the figures for the half-life in data set [2] (setting [13]) and in data set [5] (setting [15]) were 0.818 h and 2.17 h, respectively. In addition, the results for the CLint scaled in data set [2] (setting [14]) and in data set [5] (setting [16]) were 25.4 mL/min/kg and 29.6 mL/min/kg, respectively. The IC50 in the data set with MDA-MB-468 (setting [6]) was found to be 13.7 nM; in the data set on Jeko-1 [3] (setting [7]), 1.3 nM.

Take `CC[C@@]1(O)C(=O)OCc2c1cc1n(c2=O)Cc2c-1nc1cc(F)c(C)c3c1c2[C@](C)(NCCO)CC3.Cl` [Compound 17-96, (1R,9S)-9-ethyl-5-fluoro-9-hydroxy-1-((2-hydroxyethyl)amino)-1,4-dimethyl-2,3,12,15-tetrahydrobenzo[de]pyrano[3′,4′:6,7]indolizino [1,2-b]quinoline-10,13(1H,9H)-dione hydrochloride]: the Papp at 5 μM in data set [1] (setting [11]) is 62.6 ×10⁻⁶ cm/s; in data set [1] (setting [12]), 4.3 ×10⁻⁶ cm/s. Also, the half-life was found to be 0.292 h in data set [2] (setting [13]) and 1.37 h in data set [5] (setting [15]). For the same compound, the CLint scaled in data set [2] (setting [14]) came out at 71.3 mL/min/kg; in data set [5] (setting [16]), 47.1 mL/min/kg. For the same compound, the results for the IC50 with MDA-MB-468 (setting [6]) and in the data set with Jeko-1 [3] (setting [7]) were 22 nM and 2.1 nM, respectively.

With `CC[C@@]1(O)C(=O)OCc2c1cc1n(c2=O)Cc2c-1nc1cc(F)c(C)c3c1c2[C@@H](N)CC3.CS(=O)(=O)O` [Exatecan, (1S,9S)-1-amino-9-ethyl-5-fluoro-9-hydroxy-4-methyl-2,3,12,15-tetrahydro-benzo[de]pyrano [3′,4′:6,7]indolizino[1,2-b]quinoline-10,13(1H,9H)-dione methanesulfonate, reference compound], the Papp in data set [1] (pH 5) worked out at 37.2 ×10⁻⁶ cm/s; in data set [1] (pH 7.4) it was 5.7 ×10⁻⁶ cm/s. Also, the CLint scaled stood at 11.7 mL/min/kg in data set [2] (setting [14]) and 59.3 mL/min/kg in data set [5] (human hepatocytes in suspension, human hepatocytes, 90 min incubation, read-out: HHEP Cl (human hepatocytes intrinsic clearance)). Also, the half-life came to 1.77 h in data set [2] (human, microsomes) and 1.08 h in data set [5] (human, hepatocytes). Moreover, the IC50 in the data set with MDA-MB-468 (MDA-MB-468, 72 h, read-out: MDA-MB-468 IC50 (nM)) was 6.2 nM; with Jeko-1 [3] (JeKo-1, 72 h, read-out: JeKo-1 IC50 (nM)) it was 0.59 nM.

As to `CC[C@H](C)[C@@H]([C@@H](CC(=O)N1CCC[C@H]1[C@H](OC)[C@@H](C)C(=O)N[C@H](C)[C@@H](O)c1ccccc1)OC)N(C)C(=O)[C@@H](NC(=O)[C@@H](NC)C(C)C)C(C)C` [MMAE, reference compound] (H-[NMeV]V[Dil][Dolaproine]-X1), the IC50 was 0.2 nM in the data set with Jeko-1 [4] (Jeko-1, average of run 1 and run 2, read-out: Avg. IC50); 0.2 nM in the data set on Jeko-1 [4] (Jeko-1 P3, run 1, 72 h, read-out: Jeko-1 P3 (RUN1) IC50); 0.2 nM in the data set with Jeko-1 [4] (Jeko-1 P4, run 2, 72 h, read-out: Jeko-1 P4 (RUN2) IC50).

The IC50 is the concentration that inhibits the measured activity by half.
